# PubChem BioAssay AID1648 (Sanford-Burnham Center for Chemical Genomics, 2009)
# Activity calls are given as the source filed them. No rule for the calls is given here.
# Molecular target: Serine/threonine-protein kinase mTOR (Homo sapiens) (UniProt P42345)
# Assay: mTOR FRB domain ligand binding – biophysical, NMR (AID 1648)
# Settings: NMR binding to FRB domain, chemical shift
# Serine/threonine-protein kinase mTOR (Homo sapiens), sequence (P42345 2015-2114): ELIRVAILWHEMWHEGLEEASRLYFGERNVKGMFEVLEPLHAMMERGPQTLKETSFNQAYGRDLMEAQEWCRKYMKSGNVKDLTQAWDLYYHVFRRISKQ
row,Structure (SMILES),Kd
1,CC(C)c1nnc(N)s1,> 4 mM (inactive)
2,O=c1nc(N2CCCCC2)nc2n1CCO2,> 4 mM (inactive)
3,CN1CCN(C(=O)c2ccccc2N)CC1,> 4 mM (inactive)
4,O=C(O)C1CC2CC1CCC2O (centres undefined),> 4 mM (inactive)
5,Cn1c(O)c(/C=C2\C=CC=N2)c(=O)[nH]c1=S,> 4 mM (inactive)
6,O=c1cccc2n1C[C@H]1CNCC2C1,> 4 mM (inactive)
7,Cn1nc(C(=O)NCc2cccnc2)c2ccccc2c1=O,> 4 mM (inactive)
8,CC1NC(C(=O)O)Cc2c1[nH]c1ccccc21 (centres undefined),> 4 mM (inactive)
9,CC(C)NC(=O)c1nc2ccccc2s1,> 4 mM (inactive)
10,CC(=O)Nc1cccc(-c2nc3ccccc3c(=O)o2)c1,> 4 mM (inactive)
11,CC1CCCN(C/C(O)=C(\C#N)c2nc3ccccc3[nH]2)C1 (centres undefined),> 4 mM (inactive)
12,Cn1cnnc1SCC(=O)Nc1ccccc1,> 4 mM (inactive)
13,Cc1ccc(N2NC(=O)CC2=O)cc1C,> 4 mM (inactive)
14,OCC(O)C(O)C(O)CO (centres undefined),> 4 mM (inactive)
15,NCc1nc2ccccc2s1,> 4 mM (inactive)
16,Nc1ccc(-c2cn3c(n2)SCC3)cc1,> 4 mM (inactive)
17,COC1C=CC23c4cc5c(cc4CN(CC2O)[C@@H]3C1)OCO5 (some centres undefined),> 4 mM (inactive)
18,Cc1nc2nc(-c3ccco3)nn2c(C)c1Cl,> 4 mM (inactive)
19,O=S1(=O)CCC(NC(=S)N2CCOCC2)C1 (centres undefined),> 4 mM (inactive)
20,CCc1c(C(=O)Nc2ccncc2)csc1C,> 4 mM (inactive)
21,O=C(c1ccc(F)cc1)N1CCN(c2ncccn2)CC1,> 4 mM (inactive)
22,CC(C)n1c(-c2ccncc2)n[nH]c1=S,> 4 mM (inactive)
23,CCOC(=O)c1ccc2c(c1)nnn2C,> 4 mM (inactive)
24,COc1ccccc1NC(=O)C1CCC(=O)N1 (centres undefined),> 4 mM (inactive)

row,Structure (SMILES),Kd
1,COc1cc([C@@H]2c3cc4c(cc3[C@H](O)[C@H]3COC(=O)[C@@H]23)OCO4)cc(OC)c1OC,> 4 mM (inactive)
2,COC(=O)c1scc(C)c1N,> 4 mM (inactive)
3,Cn1ncc(CO)c1-c1ccccc1,> 4 mM (inactive)
4,O=C1C2CCCCC2C(=O)N1c1ccc(O)cc1 (centres undefined),> 4 mM (inactive)
5,COC(=O)Nc1c(C)n(C)n(-c2ccccc2)c1=O,> 4 mM (inactive)
6,COc1cc2c(cc1OC)[C@@H]1C(=O)c3ccc(O)c(CC=C(C)C)c3O[C@@H]1CO2,> 4 mM (inactive)
7,O=C(O)CS(=O)(=O)c1ccccc1[N+](=O)[O-],> 4 mM (inactive)
8,Cc1cc(Oc2ccccc2)nc(N)n1,> 4 mM (inactive)
9,CC(=O)O[C@H]1C[C@@H](OC(C)=O)C(C)(C)C2CC(=O)[C@]3(C)C(CC[C@@]4(C)[C@H](C(=O)O)OC(=O)C5OC543)[C@]21C (some centres undefined),> 4 mM (inactive)
10,Nc1nc(SCc2ccccc2)ns1,> 4 mM (inactive)
11,Cc1cc(C(=O)Nc2sc3c(c2C#N)CCC3)no1,> 4 mM (inactive)
12,CC(=O)N1CCc2ccccc2C1CC(=O)O (centres undefined),> 4 mM (inactive)
13,Cc1ccn(S(=O)(=O)c2ccc(F)cc2)n1,> 4 mM (inactive)
14,O=C1CSC(=Nc2ccc(O)cc2)N1,> 4 mM (inactive)
15,Nc1ccc2c(c1)C(=O)OC2,> 4 mM (inactive)
16,O=C(Nc1cccnc1)Nc1ccc2c(c1)OCO2,> 4 mM (inactive)
17,C=C(C)[C@@H]1CC[C@]2(CO)CC[C@]3(C)[C@H](CCC4[C@@]5(C)CC[C@H](O)C(C)(C)C5CC[C@]43C)C12 (some centres undefined),> 4 mM (inactive)
18,c1ccc(Cn2cccc2)nc1,> 4 mM (inactive)
19,CC(=O)NC(C)C12CC3CC(CC(C(=O)O)(C3)C1)C2 (centres undefined),> 4 mM (inactive)
20,Cc1nnc(NCCO)[nH]c1=O,> 4 mM (inactive)
21,C[C@H]1C[C@@H](O)[C@]2(O)[C@@]13CC(=O)OC[C@@]2(C)[C@](C)(O)C(=O)C3,> 4 mM (inactive)
22,CCNCC(O)c1ccc([N+](=O)[O-])cc1 (centres undefined),> 4 mM (inactive)
23,O=C(CSc1ccnc(=O)[nH]1)NCc1ccccc1,> 4 mM (inactive)
24,NC(=O)c1ccc(-c2ccccn2)s1,> 4 mM (inactive)

row,Structure (SMILES),Kd
1,Cc1cc(C(=O)Nc2sc(C)c(C)c2C#N)c(C)o1,> 4 mM (inactive)
2,CCOc1cc(C)c(Cl)cc1S(=O)(=O)N(C)C,> 4 mM (inactive)
3,COC(=O)c1ccc2nsnc2c1,> 4 mM (inactive)
4,O=C(O)CCC(=O)Nc1ccccc1F,> 4 mM (inactive)
5,C[C@H]1C(=O)O[C@@H]2CCN3CC=C(COC(=O)[C@](C)(O)[C@]1(C)O)[C@H]23,> 4 mM (inactive)
6,CC(C)=CCc1c(O)cc(C)oc1=O,> 4 mM (inactive)
7,CC(=O)Nc1cc(O)cc(O)c1,> 4 mM (inactive)
8,Cn1cc(Cl)c(C(=O)NC2CCCCCC2)n1,> 4 mM (inactive)
9,c1ccc2c(c1)ncn2CCn1cnc2ccccc21,> 4 mM (inactive)
10,COc1c(-c2coc3cc4c(cc3c2=O)CC(O)C(C)(C)O4)ccc2c1C=CC(C)(C)O2 (centres undefined),> 4 mM (inactive)
11,CC(=O)Nc1ccc(NC2SC(=O)NC2=O)cc1 (centres undefined),> 4 mM (inactive)
12,C=C(C)C1CC=C(CO)CC1 (centres undefined),> 4 mM (inactive)
13,CC1=NN(c2ccc(N)cc2)C(=O)C1,> 4 mM (inactive)
14,Cc1onc(-c2ccccc2)c1CN,> 4 mM (inactive)
15,COc1ccc2c(=O)c(CC(=O)O)coc2c1,> 4 mM (inactive)
16,CCCn1c(C)cc(=O)[nH]c1=O,> 4 mM (inactive)
17,Nc1ccc(NS(=O)(=O)c2ccc(N)cc2)cc1,> 4 mM (inactive)
18,COC(=O)Cc1cccc(OC)c1,> 4 mM (inactive)
19,Cc1nn2c(nc1=O)SCC(c1ccccc1)=N2,> 4 mM (inactive)
20,COc1cccc2c1CCC1=CC(=O)CC[C@@]12C,> 4 mM (inactive)
21,O=C1C=CC(=O)N1c1ccccc1O,> 4 mM (inactive)
22,O=C(NS(=O)(=O)c1ccccc1)c1ccccc1F,> 4 mM (inactive)
23,C=C[C@@](C)(O)CCC1C(=C)C[C@H](OC(C)=O)C2C(C)(C)CCCC12C (some centres undefined),> 4 mM (inactive)
24,Cc1occc1C(=O)NCc1ccccn1,> 4 mM (inactive)

row,Structure (SMILES),Kd
1,CCOc1ccc(C(=O)c2ccc(OC)c(O)c2O)cc1,> 4 mM (inactive)
2,CC(=O)O[C@@H]1C=C[C@@]2(C)C(C[C@@H](OC(C)=O)[C@@]3(C)C4=CC(=O)O[C@@H](c5ccoc5)[C@]4(C)CCC23)C1(C)C (some centres undefined),> 4 mM (inactive)
3,c1cncc(Nc2nc(-c3cccnc3)cs2)c1,> 4 mM (inactive)
4,COc1cc2c(cc1OC)[C@@]13CCN4CC5=CCOC6CC(=O)N2C1[C@H]6[C@H]5C[C@H]43 (some centres undefined),> 4 mM (inactive)
5,O=C(O)CNS(=O)(=O)c1cccs1,> 4 mM (inactive)
6,NC(=O)CN1C(=O)c2cccc3cccc1c23,> 4 mM (inactive)
7,COc1ccc(-c2coc3c(OC)c(OC)cc(O)c3c2=O)cc1,> 4 mM (inactive)
8,CSc1ccccc1NC(=O)c1cccnc1,> 4 mM (inactive)
9,Cc1nc(NC(=O)c2cccnc2)ccc1Br,> 4 mM (inactive)
10,c1ccc(C[N+]23CCN(CC2)c2ccccc23)cc1,> 4 mM (inactive)
11,Cc1cc(C(=O)Nc2ccccn2)no1,> 4 mM (inactive)
12,O=C(O)c1cncc(-c2ccccc2)c1,> 4 mM (inactive)
13,CC(=O)Nn1c(=O)[nH]c2ccccc2c1=O,> 4 mM (inactive)
14,O=C(O)CCNc1n[nH]c(=O)[nH]c1=O,> 4 mM (inactive)
15,CP(C)(=O)CCC(=O)O,> 4 mM (inactive)
16,Cc1nc2ccc(C(=O)N3CCSCC3)cc2s1,> 4 mM (inactive)
17,CC1(C)C(=O)C=C[C@@]2(C)C1CC(=O)[C@]1(C)C2CC[C@@]2(C)[C@H](c3ccoc3)OC(=O)[C@H]3O[C@]321 (some centres undefined),> 4 mM (inactive)
18,COC(=O)Nc1nnc(-c2ccncc2)s1,> 4 mM (inactive)
19,Cc1cc(C)n(CC(=O)O)n1,> 4 mM (inactive)
20,CCOc1ccc(-c2n[nH]c(=S)n2C)cc1,> 4 mM (inactive)
21,Cn1ccnc1C(O)c1ccccc1 (centres undefined),> 4 mM (inactive)
22,O=C(O)Cn1cnc2ccccc2c1=O,> 4 mM (inactive)
23,COc1ccc2c(c1OC)C(=O)O[C@@H]2[C@@H]1c2cc3c(cc2CCN1C)OCO3,> 4 mM (inactive)
24,CCOC(=O)CC1Sc2ccccc2NC1=S (centres undefined),> 4 mM (inactive)

row,Structure (SMILES),Kd
1,CNC(=O)C1COc2ccccc2O1 (centres undefined),> 4 mM (inactive)
2,O=C(c1ccco1)N1C(=O)c2cccc3cccc1c23,> 4 mM (inactive)
3,Cc1cc(C)n(C/C=C/Cn2nc(C)cc2C)n1,> 4 mM (inactive)
4,CC1O[C@@H](Oc2c(-c3ccc(O)c(O)c3)oc3cc(O)cc(O)c3c2=O)[C@H](O)[C@H](O)[C@H]1O (some centres undefined),> 4 mM (inactive)
5,Nc1ccc(S(=O)(=O)N2CCOCC2)cc1,> 4 mM (inactive)
6,Cc1cccc(N2CCN(C(=O)c3ccncc3)CC2)c1C,> 4 mM (inactive)
7,CC(=O)c1cccc(NC2=NCC(C)(C)S2)c1,> 4 mM (inactive)
8,CC(=O)c1sc2nc(N)nn2c1C,> 4 mM (inactive)
9,Cc1nc2nc(COc3ccccc3)nn2c(C)c1Cl,> 4 mM (inactive)
10,C=CCCCCCCCCCCCc1ccco1,> 4 mM (inactive)
11,Cn1c(=O)c2[nH]cnc2n(-c2ccccc2)c1=O,> 4 mM (inactive)
12,COCc1cc(C)nc2sc(C(=O)OC)c(N)c12,> 4 mM (inactive)
13,Cc1noc(C)c1C(=O)Nc1ccccn1,> 4 mM (inactive)
14,Cc1n[nH]c(C)c1NC(=O)c1cccc(F)c1,> 4 mM (inactive)
15,Cn1c(CO)nc2ccccc21,> 4 mM (inactive)
16,Clc1ncnc2[nH]ncc12,> 4 mM (inactive)
17,O=C1CN(C(=O)CN2CCOCC2)c2ccccc2N1,> 4 mM (inactive)
18,N#Cc1ccccc1CSc1ccccn1,> 4 mM (inactive)
19,COCC(=O)Nc1cccc(Br)c1,> 4 mM (inactive)
20,CN1C2CC(OC(=O)[C@H](CO)c3ccccc3)C[C@H]1[C@H]1OC21 (some centres undefined),> 4 mM (inactive)
21,O=C(Nc1cnccn1)c1cccc(C(F)(F)F)c1,> 4 mM (inactive)
22,O=C(O)Cn1cc(C(=O)c2cccs2)c2ccccc21,> 4 mM (inactive)
23,CC(=O)/C=C\[C@@H]1[C@@]2(C)CCCC(C)(C)C2CC[C@@]1(C)O (some centres undefined),> 4 mM (inactive)
